Test system: PBMC (HIV-1-specific CD8+ T cells) of subject AC-06
Test: IFN-γ Elispot assay of HIV-1-specific CD8+ T cell responses in subject AC-06
Assay type: cell-based, human
[1] = subject AC-06, 0 months after infection
[2] = subject AC-06, 2 months after infection
[3] = subject AC-06, 6 months after infection
[4] = subject AC-06, 12 months after infection
[5] = subject AC-06, 18 months after infection
[6] = subject AC-06, 20 months after infection
[7] = subject AC-06, 24 months after infection
[8] = subject AC-06, 29.5 months after infection
[9] = subject AC-06, 34 months after infection

| Sequence | magnitude of HIV-1-specific CD8+ T cell responses at the single epitope level [1] | magnitude of HIV-1-specific CD8+ T cell responses at the single epitope level [2] | magnitude of HIV-1-specific CD8+ T cell responses at the single epitope level [3] | magnitude of HIV-1-specific CD8+ T cell responses at the single epitope level [4] | magnitude of HIV-1-specific CD8+ T cell responses at the single epitope level [5] | magnitude of HIV-1-specific CD8+ T cell responses at the single epitope level [6] | magnitude of HIV-1-specific CD8+ T cell responses at the single epitope level [7] | magnitude of HIV-1-specific CD8+ T cell responses at the single epitope level [8] | magnitude of HIV-1-specific CD8+ T cell responses at the single epitope level [9] |
| --- | --- | --- | --- | --- | --- | --- | --- | --- | --- |
| ERILSTYLGR [A3-ER10] | 0 SFC/Million PBMC | 0 SFC/Million PBMC | 0 SFC/Million PBMC | 0 SFC/Million PBMC | 0 SFC/Million PBMC | 0 SFC/Million PBMC | 310 SFC/Million PBMC | 460 SFC/Million PBMC | 1300 SFC/Million PBMC |
| FPRIWLHGL [B7-FL9] | 0 SFC/Million PBMC | 0 SFC/Million PBMC | 0 SFC/Million PBMC | 0 SFC/Million PBMC | 0 SFC/Million PBMC | 0 SFC/Million PBMC | 210 SFC/Million PBMC | 380 SFC/Million PBMC | 960 SFC/Million PBMC |
| GIPHPAGLK [A3-GK9] | 0 SFC/Million PBMC | 0 SFC/Million PBMC | 0 SFC/Million PBMC | 0 SFC/Million PBMC | 0 SFC/Million PBMC | 0 SFC/Million PBMC | 0 SFC/Million PBMC | 240 SFC/Million PBMC | 1800 SFC/Million PBMC |
| HMYISKKAK [A3-HK9] | 0 SFC/Million PBMC | 0 SFC/Million PBMC | 0 SFC/Million PBMC | 0 SFC/Million PBMC | 0 SFC/Million PBMC | 110 SFC/Million PBMC | 320 SFC/Million PBMC | 1000 SFC/Million PBMC | 1600 SFC/Million PBMC |
| HPRVSSEVHI [B7-HI10] | 0 SFC/Million PBMC | 0 SFC/Million PBMC | 0 SFC/Million PBMC | 0 SFC/Million PBMC | 0 SFC/Million PBMC | 500 SFC/Million PBMC | 880 SFC/Million PBMC | 1800 SFC/Million PBMC | 1800 SFC/Million PBMC |
| HPVHAGPIA [B7-HA9] | 0 SFC/Million PBMC | 0 SFC/Million PBMC | 0 SFC/Million PBMC | 0 SFC/Million PBMC | 0 SFC/Million PBMC | 0 SFC/Million PBMC | 0 SFC/Million PBMC | 700 SFC/Million PBMC | 360 SFC/Million PBMC |
| KLVDFRELNK [A3-KK10] | 0 SFC/Million PBMC | 0 SFC/Million PBMC | 0 SFC/Million PBMC | 0 SFC/Million PBMC | 0 SFC/Million PBMC | 0 SFC/Million PBMC | 70 SFC/Million PBMC | 1200 SFC/Million PBMC | 1800 SFC/Million PBMC |
| KTKPPLPSVKK [A3-KK11] | 0 SFC/Million PBMC | 0 SFC/Million PBMC | 0 SFC/Million PBMC | 0 SFC/Million PBMC | 0 SFC/Million PBMC | 150 SFC/Million PBMC | 340 SFC/Million PBMC | 600 SFC/Million PBMC | 1200 SFC/Million PBMC |
| RIRTWKSLVK [A3-RK10] | 0 SFC/Million PBMC | 0 SFC/Million PBMC | 0 SFC/Million PBMC | 0 SFC/Million PBMC | 0 SFC/Million PBMC | 180 SFC/Million PBMC | 270 SFC/Million PBMC | 1100 SFC/Million PBMC | 1600 SFC/Million PBMC |
| RLRDLLLIVTR [A3-RR11] | 0 SFC/Million PBMC | 0 SFC/Million PBMC | 0 SFC/Million PBMC | 0 SFC/Million PBMC | 0 SFC/Million PBMC | 0 SFC/Million PBMC | 260 SFC/Million PBMC | 230 SFC/Million PBMC | 320 SFC/Million PBMC |
| RPMTYKAAL [B7-RL9] | 0 SFC/Million PBMC | 0 SFC/Million PBMC | 0 SFC/Million PBMC | 0 SFC/Million PBMC | 0 SFC/Million PBMC | 120 SFC/Million PBMC | 180 SFC/Million PBMC | 600 SFC/Million PBMC | 360 SFC/Million PBMC |
| SPAIFQSSM [B7-SM9] | 0 SFC/Million PBMC | 0 SFC/Million PBMC | 0 SFC/Million PBMC | 0 SFC/Million PBMC | 0 SFC/Million PBMC | 90 SFC/Million PBMC | 130 SFC/Million PBMC | 1400 SFC/Million PBMC | 1000 SFC/Million PBMC |
| SPRTLNAWV [B7-SV9] | 0 SFC/Million PBMC | 0 SFC/Million PBMC | 0 SFC/Million PBMC | 0 SFC/Million PBMC | 0 SFC/Million PBMC | 0 SFC/Million PBMC | 0 SFC/Million PBMC | 680 SFC/Million PBMC | 120 SFC/Million PBMC |
| TPQDLNTML [B7-TL9] | 0 SFC/Million PBMC | 0 SFC/Million PBMC | 0 SFC/Million PBMC | 0 SFC/Million PBMC | 0 SFC/Million PBMC | 0 SFC/Million PBMC | 0 SFC/Million PBMC | 740 SFC/Million PBMC | 1300 SFC/Million PBMC |
